Source: patent US11407738B2 (Achillion Pharmaceuticals, Inc., priority 2015, dated 2022)

Biological target: Human Factor D (Homo sapiens (Human), UniProt P00746)
Experiment: Human Factor D assay
Format: biochemical
Details: Factor D inhibition, substrate Z-L-Lys-SBzl
Procedure, shortened: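 Serum-purified human factor D (80 nM final) preincubated 5 min at room temperature with test compound in 50 mM Tris, 1M NaCl, pH 7.5. Z-L-Lys-SBzl substrate and DTNB then added, each at 100 μM final. IC50 from nonlinear regression of reaction rate against compound concentration.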

Human Factor D, sequence (P00746 26-253): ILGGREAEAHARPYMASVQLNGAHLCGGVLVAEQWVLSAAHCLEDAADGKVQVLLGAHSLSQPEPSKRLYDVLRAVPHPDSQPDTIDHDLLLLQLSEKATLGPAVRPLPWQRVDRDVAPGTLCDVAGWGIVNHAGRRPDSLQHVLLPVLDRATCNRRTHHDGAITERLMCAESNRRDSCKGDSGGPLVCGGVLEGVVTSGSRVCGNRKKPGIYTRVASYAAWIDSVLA

| SMILES | IC50 (Table 3) [µM] | IC50 (Table 4) [µM] |
| --- | --- | --- |
| CC(=O)c1nn(CC(=O)N2C[C@H](F)C[C@H]2C(=O)Nc2cccc(S(F)(F)(F)(F)F)c2)c2ccc(-c3cnc(C)nc3)cc12 [Compound 504, (2S,4R)-1-(2-(3-Acetyl-5-(2-methylpyrimidin-5-yl)-1H-indazol-1-yl)acetyl)-4-fluoro-N-(3-(pentafluoro-λ^6-sulfanyl)phenyl)pyrrolidine-2-carboxamide] | < 1 |  |
| CC(=O)Cc1nn(CC(=O)N2C[C@H](F)C[C@H]2C(=O)Nc2cccc(Br)n2)c2ccc(-c3cnc(C)nc3)cc12 [Compound 522, (2S,4R)-N-(6-bromopyridin-2-yl)-4-fluoro-1-(2-(5-(2-methylpyrimidin-5-yl)-3-(2-oxopropyl)-1H-indazol-1-yl)acetyl)pyrrolidine-2-carboxamide] | < 1 |  |
| CC(=O)c1nn2c3ccc(cc13)-c1cnc(nc1)NCCCCCCCCCCCc1cc(Cl)c(F)c(c1)CNC(=O)[C@@H]1C[C@@H](F)CN1C(=O)C2 [Compound 541] |  | > 10 |
| Cc1cccc(NC(=O)[C@@H]2CCC(F)CCN2C(=O)Cn2cc(C(N)=O)c3cc(-c4cnn5c4CCC5)ccc32)n1 (stereo partly drawn) [Compound 617, 5-(5,6-Dihydro-4H-pyrrolo[1,2-b]pyrazol-3-yl)-1-(2-((2S)-5-fluoro-2-((6-methylpyridin-2-yl)carbamoyl)azepan-1-yl)-2-oxoethyl)-1H-indole-3-carboxamide] |  | > 10 |
| CC(=O)c1nn(CC(=O)N2C[C@H](F)C[C@H]2CNCc2cccc(Cl)c2F)c2ccc(-c3cnc(C)nc3)cc12 [Compound 630, 2-(3-Acetyl-5-(2-methylpyrimidin-5-yl)-1H-indazol-1-yl)-1-((2S,4R)-2-(((3-chloro-2-fluorobenzyl)amino)methyl)-4-fluoropyrrolidin-1-yl)ethan-1-one] |  | 1 to 10 |
| CC(=O)c1nn(CC(=O)N2C[C@H](F)C[C@H]2C(=O)Nc2cccc(-c3ccccc3Cl)c2F)c2ccc(N3CCn4c(nnc4C(F)(F)F)C3)cc12 [Compound 619, (2S,4R)-1-(2-(3-acetyl-5-(3-(trifluoromethyl)-5,6-dihydro-[1,2,4]triazolo[4,3-a]pyrazin-7(8H)-yl)-1H-indazol-1-yl)acetyl)-N-(2′-chloro-2-fluoro-[1,1′-biphenyl]-3-yl)-4-fluoropyrrolidine-2-carboxamide] |  | < 1 |
| CC(=O)c1nn(CC(=O)N2C[C@H](F)C[C@H]2C(=O)Nc2nc(Br)ccc2C)c2ccc(-c3cnc(N)nc3)cc12 [Compound 553, (2S,4R)-1-(2-(3-acetyl-5-(2-aminopyrimidin-5-yl)-1H-indazol-1-yl)acetyl)-N-(6-bromo-3-methylpyridin-2-yl)-4-fluoropyrrolidine-2-carboxamide] |  | < 1 |
| CC(=O)c1nn(CC(=O)N2C[C@H](F)C[C@H]2C(=O)Nc2cccc(-c3cc(S(N)(=O)=O)ccc3Cl)c2F)c2ccc(-c3cnc(C)nc3)cc12 [Compound 525, (2S,4R)-1-(2-(3-acetyl-5-(2-methylpyrimidin-5-yl)-1H-indazol-1-yl)acetyl)-N-(2′-chloro-2-fluoro-5′-sulfamoylbiphenyl-3-yl)-4-fluoropyrrolidine-2-carboxamide] | < 1 |  |
| CC(=O)c1cn(CC(=O)N(C)[C@H](C(=O)Nc2cccc(-c3ccccc3Cl)c2F)[C@@H](C)O)c2ccc(-c3cnc(C)nc3)cc12 [Compound 506, (2S,3R)-2-(2-(3-Acetyl-5-(2-methylpyrimidin-5-yl)-1H-indol-1-yl)-N-methylacetamido)-N-(2′-chloro-2-fluorobiphenyl-3-yl)-3-hydroxybutanamide] | 1 to 10 |  |
| CC(=O)c1cc(CC(=O)N2C[C@H](F)C[C@H]2C(=O)Nc2cccc(Br)n2)n2ccc(-c3cnc(C)nc3)cc12 [Compound 643] |  | < 1 |
| CC(=O)c1nn(CC(=O)N2CCC[C@@H]2CC(=O)O)c2ccc(-c3cnc(C)nc3)cc12 [Compound 510, (R)-2-(1-(2-(3-acetyl-5-(2-methylpyrimidin-5-yl)-1H-indazol-1-yl)acetyl)pyrrolidin-2-yl)acetic acid] | > 10 |  |
| CC(=O)c1nn(CC(=O)N2C[C@H](F)C[C@H]2C(=O)Nc2cccc(-c3ccc4scnc4c3)c2F)c2ccc(-c3cnc(C)nc3)cc12 [Compound 520, (2S,4R)-1-(2-(3-acetyl-5-(2-methylpyrimidin-5-yl)-1H-indazol-1-yl)acetyl)-N-(3-(benzo[d]thiazol-5-yl)-2-fluorophenyl)-4-fluoropyrrolidine-2-carboxamide] | < 1 |  |
| CC(=O)c1nn(CC(=O)N2C[C@H](F)C[C@H]2C(=O)Nc2cccc(-c3cc(S(=O)(=O)NC4CC4)ccc3Cl)c2F)c2ccc(-c3cnc(C)nc3)cc12 [Compound 521, (2S,4R)-1-(2-(3-acetyl-5-(2-methylpyrimidin-5-yl)-1H-indazol-1-yl)acetyl)-N-(2′-chloro-5′-(N-cyclopropyl-sulfamoyl)-2-fluorobiphenyl-3-yl)-4-fluoropyrrolidine-2-carboxamide] | < 1 |  |
| CC(=O)c1nn(CC(=O)N2C[C@H](F)C[C@H]2CC(N)=O)c2ccc(-c3cnc(C)nc3)cc12 [Compound 575, 2-((2R,4R)-1-(2-(3-Acetyl-5-(2-methylpyrimidin-5-yl)-1H-indazol-1-yl)acetyl)-4-fluoropyrrolidin-2-yl)acetamide] |  | > 10 |
| Cc1cccc(NC(=O)[C@@H]2CCC(F)CCN2C(=O)Cn2cc(C(N)=O)c3cc(-c4cnc5ncccn45)ccc32)n1 (stereo partly drawn) [Compound 615, 1-(2-((2S)-5-Fluoro-2-((6-methylpyridin-2-yl)carbamoyl)azepan-1-yl)-2-oxoethyl)-5-(imidazo[1,2-a]pyrimidin-3-yl)-1H-indole-3-carboxamide] |  | > 10 |
| CC(=O)c1nn(CC(=O)N2CCC[C@@H](CNC(=O)c3ncc(Br)s3)C2)c2ccc(-c3cnc(C)nc3)cc12 [Compound 548, (S)—N-((1-(2-(3-Acetyl-5-(2-methylpyrimidin-5-yl)-1H-indazol-1-yl)acetyl)piperidin-3-yl)methyl)-5-bromothiazole-2-carboxamide] |  | > 10 |
| Cc1cccc(NC(=O)[C@@H]2CC=CCN2C(=O)Cn2cc(C(N)=O)c3cc(-c4cnc(C)nc4)ccc32)n1 [Compound 566, (S)-1-(2-(2-((6-Methylpyridin-2-yl)carbamoyl)-3,6-dihydropyridin-(2H)-yl)-2-oxoethyl)-5-(2-methylpyrimidin-5-yl)-1H-indole-3-carboxamide] |  | > 10 |
| COc1ncc(-c2ccc3c(c2)c(C(C)=O)nn3CC(=O)N2C[C@H](F)C[C@H]2C(=O)Nc2nc(Br)ccc2C)cn1 [Compound 554, (2S,4R)-1-(2-(3-acetyl-5-(2-methoxypyrimidin-5-yl)-1H-indazol-1-yl)acetyl)-N-(6-bromo-3-methylpyridin-2-yl)-4-fluoropyrrolidine-2-carboxamide] |  | < 1 |
| CC(=O)c1nn(CC(=O)N2C[C@H](F)C[C@H]2CNC(=O)c2cccc(Cl)c2F)c2ccc(-c3cnc(C)nc3)cc12 [Compound 562, N-(((2S,4R)-1-(2-(3-acetyl-5-(2-methylpyrimidin-5-yl)-1H-indazol-1-yl)acetyl)-4-fluoropyrrolidin-2-yl)methyl)-3-chloro-2-fluorobenzamide] |  | > 10 |
| Cc1cccc(C[C@@H](O)[C@H]2C[C@@H](F)CN2C(=O)Cn2cc(C(N)=O)c3cc(-c4cnc(C)nc4)ccc32)n1 [Compound 561, 1-(2-((2R,4R)-4-Fluoro-2-((R)-1-hydroxy-2-(6-methylpyridin-2-yl)ethyl)pyrrolidin-1-yl)-2-oxoethyl)-5-(2-methylpyrimidin-5-yl)-1H-indole-3-carboxamide] |  | > 10 |
| CC(=O)c1nn(CC(=O)N2C[C@H](F)C[C@@H]2c2nnc(-c3cccc(Cl)c3F)[nH]2)c2ccc(-c3cnc(C)nc3)cc12 [Compound 572, 2-(3-acetyl-5-(2-methylpyrimidin-5-yl)-1H-indazol-1-yl)-1-((2R,4R)-2-(5-(3-chloro-2-fluorophenyl)-4H-1,2,4-triazol-3-yl)-4-fluoropyrrolidin-1-yl)ethan-1-one] |  | > 10 |
| CO[C@@H]1CO[C@H]2[C@@H]1OC[C@H]2Oc1ncc(-c2ccc3c(c2)c(C(C)=O)cn3CC(=O)N2C[C@H](F)C[C@H]2C(=O)Nc2cccc(Br)n2)cn1 [Compound 508, (2S,4R)-1-(2-(3-Acetyl-5-(2-((3R,3aR,6R,6aR)-6-methoxyhexahydrofuro[3,2-b]furan-3-yloxy)pyrimidin-5-yl)-1H-indol-1-yl)acetyl)-N-(6-bromopyridin-2-yl)-4-fluoropyrrolidine-2-carboxamide] | < 1 |  |
| CC(=O)c1cn(CC(=O)N2C[C@H](F)C[C@H]2C(=O)Nc2cccc(-c3ccccc3Cl)c2F)c2ccc(-c3cnc(O[C@@H]4CO[C@H]5[C@@H]4OC[C@H]5O)nc3)cc12 [Compound 501, (2S,4R)-1-(2-(3-Acetyl-5-(2-((3R,3aR,6R,6aR)-6-hydroxyhexahydrofuro[3,2-b]furan-3-yloxy)pyrimidin-5-yl)-1H-indol-1-yl)acetyl)-N-(2′-chloro-2-fluorobiphenyl-3-yl)-4-fluoropyrrolidine-2-carboxamide] | < 1 |  |
| Cc1cccc(NC(=O)[C@@H]2CCC(F)CCN2C(=O)Cn2cc(C(N)=O)c3cc(-c4cnc5n4CCCC5)ccc32)n1 (stereo partly drawn) [Compound 616, 1-(2-((2S)-5-Fluoro-2-((6-methylpyridin-2-yl)carbamoyl)azepan-1-yl)-2-oxoethyl)-5-(5,6,7,8-tetrahydroimidazo[1,2-a]pyridin-3-yl)-1H-indole-3-carboxamide] |  | > 10 |
| Cc1cccc(NC(=O)[C@@H]2CCC(F)CCN2C(=O)Cn2cc(C(N)=O)c3cc(-c4cnc(C)nc4)ccc32)n1 (stereo partly drawn) [Compound 578, 1-(2-((2S)-5-Fluoro-2-((6-methylpyridin-2-yl)carbamoyl)azepan-1-yl)-2-oxoethyl)-5-(2-methylpyrimidin-5-yl)-1H-indole-3-carboxamide] |  | > 10 |
| CC(=O)c1nn(CC(=O)N2C[C@H](F)C[C@H]2CC(=O)Nc2cccc(Cl)c2F)c2ccc(-c3cnc(C)nc3)cc12 [Compound 576, 2-((2R,4R)-1-(2-(3-Acetyl-5-(2-methylpyrimidin-5-yl)-1H-indazol-1-yl)acetyl)-4-fluoropyrrolidin-2-yl)-N-(3-chloro-2-fluorophenyl)acetamide] |  | > 10 |
